How the values were obtained:
Assay type in all cases: in vivo
[1] = test system: diamond-back moth (Plutella xylostella) (field-strain); experiment: Hatching of diamond-back moth eggs laid on dipped germinated Japanese radish (Test Example 3); details: 1.25 ppm (diluted 80,000 times with water); radish dipped 30 seconds before egg laying; hatching counted after 5 days; repeated twice; four grades
Description: Two pieces of germinated Japanese radish which had been sowed 5 or 6 days before were dipped for 30 seconds in the aqueous dilute solution. After air-drying for about 1 hour, these germinated radish were put in a cage wherein a large number of adult diamond-back moth (Plutella xylostella) (field-strain) of an age of 1-3 days after the emergence were released, and they were allowed to lay eggs. When the number of eggs per germinated radish reached 100 to 150, the radish were taken out of the cage and each two pieces thereof were put in a polyethylene cup of 5.5 cm in diameter. After 5 days, the number of hatching was counted to obtain percentage of hatching. The test was repeated twice.

[2] = test system: tobacco cutworm (Spodoptera litura); experiment: Mortality of tobacco cutworm larvae on sprayed cabbage (Test Example 2); details: for mortality at 0.5 ppm: Spodoptera litura, 120 h; for Mortality (%): 0.5 ppm (diluted 200,000 times with water), 30 ml sprayed onto cabbage, 5 fourth-instar larvae, after 5 days, repeated three times
Description: The emulsifiable concentrate of each of the following present compounds and controls prepared according to Formulation Example 1 was diluted 200,000 times with water (corresponding to 0.5 ppm). And 30 ml of each aqueous dilute solution thus obtained were sprayed onto cabbage cultivated in a plastic cup on a turn table, which cabbage had been planted one month before. After air-drying, 5 fourth-instar larvae of tobacco cutworm (Spodoptera litura) were released thereon, and after 5 days, the dead and alive were counted for mortality. This test was repeated three times.

[3] = test system: common mosquito (Culex pipiens pallens); experiment: Inhibition of adult emergence of common mosquito larvae in aqueous dilute emulsion (Test Example 1); details: 3.5 ppm (emulsifiable concentrate diluted 28,600 times with water), 20 last-instar larvae in 100 ml, bred until emergence, repeated twice
Description: The emulsifiable concentrate of each of the following present compounds prepared according to Formulation Example 1 was diluted 28,600 times with water (corresponding to 3.5 ppm). And 100 ml of each aqueous dilute emulsion thus obtained were charged in a 180-ml polyethylene cup. Then 20 last-instar larvae of common mosquito (Culex pipiens pallens) were released therein. The larvae were bred on baits until emergence to obtain percentage of inhibition of adult emergence. The test was repeated twice.

Row | SMILES | Percentage of hatching [1] | mortality at 0.5 ppm [2] | inhibition at 3.5 ppm [3] | Mortality (%) [2]
1 | O=C(NC(=O)c1c(F)cccc1F)Nc1ccc(OC(F)(F)C(F)(F)Br)cc1F [(1)] | A (A: 0%) | 100% | 100% | 
2 | O=C(NC(=O)c1c(F)cccc1F)Nc1ccc(OC(F)(F)C(Cl)Cl)cc1F [(2)] | A (A: 0%) | 93% | 100% | 
3 | O=C(NC(=O)c1ccccc1Cl)Nc1ccc(OC(F)(F)C(Cl)Cl)cc1F [(3)] | A (A: 0%) | 100% | 100% | 
4 | O=C(NC(=O)c1c(F)cccc1F)Nc1ccc(OC(F)(F)C(Br)Br)cc1F [(4)] | A (A: 0%) | 100% | 100% | 
5 | O=C(NC(=O)c1c(F)cccc1F)Nc1ccc(OC(F)(F)C(F)Cl)cc1F (stereo not shown) [(5)] | A (A: 0%) | 93% | 100% | 
6 | O=C(NC(=O)c1ccccc1Cl)Nc1ccc(OC(F)(F)C(F)Cl)cc1F (stereo not shown) [(6)] | A (A: 0%) | 100% | 100% | 
7 | O=C(NC(=O)c1c(F)cccc1F)Nc1ccc(OC(F)(F)C(F)C(F)(F)F)cc1F (stereo not shown) [(7)] | A (A: 0%) | 100% | 100% | 
8 | O=C(NC(=O)c1ccccc1Cl)Nc1ccc(OC(F)(F)C(F)C(F)(F)F)cc1F (stereo not shown) [(8)] | A (A: 0%) | 100% | 100% | 
9 | O=C(NC(=O)c1c(F)cccc1F)Nc1ccc(OC(F)(F)C(F)OC(F)(F)C(F)(F)C(F)(F)F)cc1F (stereo not shown) [(9)] | A (A: 0%) | 100% | 100% | 
10 | O=C(NC(=O)c1ccccc1Cl)Nc1ccc(OC(F)(F)C(F)OC(F)(F)C(F)(F)C(F)(F)F)cc1F (stereo not shown) [(10)] | A (A: 0%) | 100% | 100% | 
11 | O=C(NC(=O)c1c(F)cccc1F)Nc1ccc(OC(F)(F)C(F)OC(F)(F)F)cc1F (stereo not shown) [(11)] | A (A: 0%) | 100% | 100% | 
12 | O=C(NC(=O)c1ccccc1Cl)Nc1ccc(OC(F)(F)C(F)OC(F)(F)F)cc1F (stereo not shown) [(12)] | A (A: 0%) | 100% | 100% | 
13 | O=C(NC(=O)c1c(F)cccc1F)Nc1ccc(Cl)cc1 [(A), reference compound] | D (D: 21% or more) |  |  | 13%
14 | O=C(NC(=O)c1ccccc1Cl)Nc1ccc(OC(F)(F)F)cc1 [(B), reference compound] | D (D: 21% or more) |  |  | 0%
